Measurements reported in US11572399B2, “Long-acting GIP peptide analogues” (University of Copenhagen, priority 2017, dated 2023).
Numbered stars: 1 amine (or outer) side, 2 acyl side, 3 side chain; on linkers, the order of the positions; unused ones are H or OH. Side chains are listed from the residue outwards. Peptide text beside a SMILES is read from it. * marks the point of attachment. γGlu = O=C(O)[C@H](CCC(=O)[*:2])N[*:1]; Stearoyl = CCCCCCCCCCCCCCCCCC(=O)*; Palmitoyl = CCCCCCCCCCCCCCCC(=O)*; AEEA = NCCOCCOCC(=O)O; GABA = NCCCC(=O)O

Legend:
[1] = target: T1, human GIP receptor (Homo sapiens, UniProt P48546); assay: cAMP accumulation assay, antagonism of a GIP-mediated cAMP response (50-80% of max); assay type: cell-based; details: for Fold change from GIP(3-30)NH2 (increase in potency): Table 5
T1 construct: host or cells: COS-7, transient transfection (calcium phosphate), cDNA in pCMV-Script
T1 sequence (P48546 22-466): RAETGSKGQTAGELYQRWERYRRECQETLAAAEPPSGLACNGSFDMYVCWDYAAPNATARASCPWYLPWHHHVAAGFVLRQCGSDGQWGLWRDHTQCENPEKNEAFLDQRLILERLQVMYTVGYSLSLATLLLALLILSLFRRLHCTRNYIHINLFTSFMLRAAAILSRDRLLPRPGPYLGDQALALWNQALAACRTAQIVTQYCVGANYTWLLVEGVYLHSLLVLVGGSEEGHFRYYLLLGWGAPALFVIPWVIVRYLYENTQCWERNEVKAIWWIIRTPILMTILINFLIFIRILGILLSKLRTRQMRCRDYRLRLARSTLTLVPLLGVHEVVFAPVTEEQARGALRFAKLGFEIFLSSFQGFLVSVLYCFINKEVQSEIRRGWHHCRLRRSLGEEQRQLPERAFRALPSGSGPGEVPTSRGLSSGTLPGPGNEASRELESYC
Description: The day after, the cells were washed twice with Hepes buffered saline (HBS) buffer and incubated with HBS and 1 mM 3-isobutyl-1-methylxanthine (IBMX) for 30 min at 37° C. […] The HitHunter™ cAMP XS assay (DiscoveRx) was carried out according to the manufacturer's instructions.

[2] = target: T1, human GIP receptor; assay: cAMP accumulation assay, agonism (ligand alone); assay type: cell-based; details: COS-7 cells, Table 1; for Emax: COS-7, intrinsic cAMP activity; for cAMP agonism Emax: intrinsic cAMP activity
[3] = target: T1, human GIP receptor; assay: 125I-human GIP competition binding assay, in the presence and absence of 2% HSA;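 note: nonspecific binding taken as radioligand bound to untransfected cells, IC50 obtained from nonlinear regression fits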
[4] = heterologous competition binding, transiently transfected COS-7 cells expressing the human GIP receptor, read-out: Binding

**Q.** Which IC50 ([1]; transiently transfected COS-7 cells, Table 1 and text, read-out: cAMP antagonism nM (IC50, antagonistic potency)) does the source give for CCCCCCCCCCCCCCCCCC(=O)NCCCC[C@H](NC(=O)[C@@H](NC(=O)[C@H](CCCCN)NC(=O)[C@H](CC(=O)O)NC(=O)[C@H](CCSC)NC(=O)[C@H](C)NC(=O)[C@@H](NC(=O)[C@H](CO)NC(=O)[C@H](Cc1ccc(O)cc1)NC(=O)[C@H](CC(=O)O)NC(=O)[C@H](CO)NC(=O)[C@@H](NC(=O)[C@H](Cc1ccccc1)NC(=O)[C@@H](N)[C@@H](C)O)[C@@H](C)CC)[C@@H](C)CC)[C@@H](C)CC)C(=O)N[C@@H](CCC(N)=O)C(=O)N[C@@H](CCC(N)=O)C(=O)N[C@@H](CC(=O)O)C(=O)N[C@@H](Cc1ccccc1)C(=O)N[C@H](C(=O)N[C@@H](CC(N)=O)C(=O)N[C@@H](Cc1c[nH]c2ccccc12)C(=O)N[C@@H](CC(C)C)C(=O)N[C@@H](CC(C)C)C(=O)N[C@@H](C)C(=O)N[C@@H](CCC(N)=O)C(=O)N[C@@H](CCCCN)C(N)=O)C(C)C [AT161, [hGIP(5-30)NH2[H18K]-C18/18]] (H-TFISDYSIAMDKIK(Stearoyl)QQDFVNWLLAQK-NH2; N-terminus assumed) here?
**A.** Its IC50 is 252 nM.

**Q.** And the Emax [2]?
**A.** The Emax was 7%.

**Q.** Which “Fold change from GIP(3-30)NH2 (increase in potency)” value [1] does the source give for CCCCCCCCCCCCCCCC(=O)NCCCC(=O)NCCCC[C@H](NC(=O)[C@@H](NC(=O)[C@H](CCCCN)NC(=O)[C@H](CC(=O)O)NC(=O)[C@H](CCSC)NC(=O)[C@H](C)NC(=O)[C@@H](NC(=O)[C@H](CO)NC(=O)[C@H](Cc1ccc(O)cc1)NC(=O)[C@H](CC(=O)O)NC(=O)[C@H](CO)NC(=O)[C@@H](NC(=O)[C@H](Cc1ccccc1)NC(=O)[C@@H](NC(=O)CNC(=O)[C@@H](N)CCC(=O)O)[C@@H](C)O)[C@@H](C)CC)[C@@H](C)CC)[C@@H](C)CC)C(=O)N[C@@H](CCC(N)=O)C(=O)N[C@@H](CCC(N)=O)C(=O)N[C@@H](CC(=O)O)C(=O)N[C@@H](Cc1ccccc1)C(=O)N[C@H](C(=O)N[C@@H](CC(N)=O)C(=O)N[C@@H](Cc1c[nH]c2ccccc12)C(=O)N[C@@H](CC(C)C)C(=O)N[C@@H](CC(C)C)C(=O)N[C@@H](C)C(=O)N[C@@H](CCC(N)=O)C(=O)N[C@@H](CCCCN)C(N)=O)C(C)C [AT165, [hGIP(3-30)NH2[H18K]-C16/18+y-aminobuturic acid]] (H-EGTFISDYSIAMDKIK([GABA-Palmitoyl])QQDFVNWLLAQK-NH2; N-terminus assumed) here?
**A.** Its value is 2.9 fold.

**Q.** Which “Fold change from GIP(3-30)NH2 (increase in potency)” value [1] does the source give for CCCCCCCCCCCCCCCC(=O)NCCOCCOCC(=O)N[C@@H](CCC(=O)NCCCC[C@H](NC(=O)[C@@H](NC(=O)[C@H](CCCCN)NC(=O)[C@H](CC(=O)O)NC(=O)[C@H](CCSC)NC(=O)[C@H](C)NC(=O)[C@@H](NC(=O)[C@H](CO)NC(=O)[C@H](Cc1ccc(O)cc1)NC(=O)[C@H](CC(=O)O)NC(=O)[C@H](CO)NC(=O)[C@@H](NC(=O)[C@H](Cc1ccccc1)NC(=O)[C@@H](NC(=O)CNC(=O)[C@@H](N)CCC(=O)O)[C@@H](C)O)[C@@H](C)CC)[C@@H](C)CC)[C@@H](C)CC)C(=O)N[C@@H](CCC(N)=O)C(=O)N[C@@H](CCC(N)=O)C(=O)N[C@@H](CC(=O)O)C(=O)N[C@@H](Cc1ccccc1)C(=O)N[C@H](C(=O)N[C@@H](CC(N)=O)C(=O)N[C@@H](Cc1c[nH]c2ccccc12)C(=O)N[C@@H](CC(C)C)C(=O)N[C@@H](CC(C)C)C(=O)N[C@@H](C)C(=O)N[C@@H](CCC(N)=O)C(=O)N[C@@H](CCCCN)C(N)=O)C(C)C)C(=O)O [AT167, [hGIP(3-30)NH2[H18K]-C16/18+y-glutamic acid+8-amino-3,6-dioxaoctanoic acid]] (H-EGTFISDYSIAMDKIK([γGlu-AEEA-Palmitoyl])QQDFVNWLLAQK-NH2) here?
**A.** The value was 14.8 fold.

**Q.** For CC[C@H](C)[C@H](NC(=O)[C@H](CO)NC(=O)[C@H](Cc1ccc(O)cc1)NC(=O)[C@H](CC(=O)O)NC(=O)[C@H](CO)NC(=O)[C@@H](NC(=O)[C@H](Cc1ccccc1)NC(=O)[C@@H](N)[C@@H](C)O)[C@@H](C)CC)C(=O)N[C@@H](C)C(=O)N[C@@H](CCSC)C(=O)N[C@@H](CC(=O)O)C(=O)N[C@@H](CCCCN)C(=O)N[C@H](C(=O)N[C@@H](Cc1c[nH]cn1)C(=O)N[C@@H](CCC(N)=O)C(=O)N[C@@H](CCC(N)=O)C(=O)N[C@@H](CC(=O)O)C(=O)N[C@@H](Cc1ccccc1)C(=O)N[C@H](C(=O)N[C@@H](CC(N)=O)C(=O)N[C@@H](Cc1c[nH]c2ccccc12)C(=O)N[C@@H](CC(C)C)C(=O)N[C@@H](CC(C)C)C(=O)N[C@@H](C)C(=O)N[C@@H](CCC(N)=O)C(=O)N[C@@H](CCCCN)C(N)=O)C(C)C)[C@@H](C)CC [hGIP(5-30)NH2, reference compound], which IC50 ([1]; cAMP accumulation IC50 (nM), antagonism of GIP-mediated cAMP response, COS-7 cells) is on record?
**A.** The IC50 was 27.5 nM.

**Q.** What about the IC50 ([1]; cAMP antagonism nM (IC50, antagonistic potency), transiently transfected COS-7 cells, Table 1 and text) of the same compound?
**A.** The IC50 was 28 nM.

**Q.** What about the “Binding (+/−HSA) Fold” value ([3]; fold change +HSA/−HSA) of the same compound?
**A.** Its value is 1.0.

**Q.** Which results are given for CCCCCCCCCCCC(=O)NCCCC[C@H](NC(=O)[C@H](CC(=O)O)NC(=O)[C@H](CCSC)NC(=O)[C@H](C)NC(=O)[C@@H](NC(=O)[C@H](CO)NC(=O)[C@H](Cc1ccc(O)cc1)NC(=O)[C@H](CC(=O)O)NC(=O)[C@H](CO)NC(=O)[C@@H](NC(=O)[C@H](Cc1ccccc1)NC(=O)[C@@H](NC(=O)CNC(=O)[C@@H](N)CCC(=O)O)[C@@H](C)O)[C@@H](C)CC)[C@@H](C)CC)C(=O)N[C@H](C(=O)N[C@@H](Cc1c[nH]cn1)C(=O)N[C@@H](CCC(N)=O)C(=O)N[C@@H](CCC(N)=O)C(=O)N[C@@H](CC(=O)O)C(=O)N[C@@H](Cc1ccccc1)C(=O)N[C@H](C(=O)N[C@@H](CC(N)=O)C(=O)N[C@@H](Cc1c[nH]c2ccccc12)C(=O)N[C@@H](CC(C)C)C(=O)N[C@@H](CC(C)C)C(=O)N[C@@H](C)C(=O)N[C@@H](CCC(N)=O)C(=O)N[C@@H](CCCCN)C(N)=O)C(C)C)[C@@H](C)CC [AT102, [hGIP(3-30)NH2—C12/16]]?
**A.** IC50 ([3]; Table 3b, initial data, read-out: Binding IC50): 59.1 nM; Binding fold (paired) ([3]; fold decrease in affinity compared to GIP(3-30)NH2, Table 3b): 6.1 fold; IC50 [3, 4]: 59.1 nM; EC50 ([2]; read-out: cAMP agonism nM (EC50)): 0.7 nM; cAMP agonism Emax [2]: 66%

**Q.** Which results are given for CC[C@H](C)[C@H](NC(=O)[C@H](CO)NC(=O)[C@H](Cc1ccc(O)cc1)NC(=O)[C@H](CC(=O)O)NC(=O)[C@H](CO)NC(=O)[C@@H](NC(=O)[C@H](Cc1ccccc1)NC(=O)[C@@H](N)[C@@H](C)O)[C@@H](C)CC)C(=O)N[C@@H](C)C(=O)N[C@@H](CCSC)C(=O)N[C@@H](CC(=O)O)C(=O)N[C@@H](CCCCNC(=O)CCCCCCCCCCCCCCCCC(=O)O)C(=O)N[C@H](C(=O)N[C@@H](Cc1c[nH]cn1)C(=O)N[C@@H](CCC(N)=O)C(=O)N[C@@H](CCC(N)=O)C(=O)N[C@@H](CC(=O)O)C(=O)N[C@@H](Cc1ccccc1)C(=O)N[C@H](C(=O)N[C@@H](CC(N)=O)C(=O)N[C@@H](Cc1c[nH]c2ccccc12)C(=O)N[C@@H](CC(C)C)C(=O)N[C@@H](CC(C)C)C(=O)N[C@@H](C)C(=O)N[C@@H](CCC(N)=O)C(=O)N[C@@H](CCCCN)C(N)=O)C(C)C)[C@@H](C)CC [AT141, [hGIP(5-30)NH2—C18diacid/16]]?
**A.** Fold change HSA (2%)/Casein (0.1%) ([3]; IC50 (plus HSA)/IC50 (minus HSA)): 6.5; IC50 ([3]; binding in 0.1% casein (absence of HSA), log value, read-out: logIC50 0.1% casein (converted)): 2000 nM; IC50 [3, 4]: 1900 nM; Emax [2]: 0%

**Q.** Which IC50 [3, 4] does the source give for CCCCCCCCCCCC(=O)NCCCC[C@H](NC(=O)[C@H](CC(=O)O)NC(=O)[C@H](CCSC)NC(=O)[C@H](C)NC(=O)[C@@H](NC(=O)[C@H](CO)NC(=O)[C@H](Cc1ccc(O)cc1)NC(=O)[C@H](CC(=O)O)NC(=O)[C@H](CO)NC(=O)[C@@H](NC(=O)[C@H](Cc1ccccc1)NC(=O)[C@@H](NC(=O)CNC(=O)[C@@H](N)CCC(=O)O)[C@@H](C)O)[C@@H](C)CC)[C@@H](C)CC)C(=O)N[C@H](C(=O)N[C@@H](Cc1c[nH]cn1)C(=O)N[C@@H](CCC(N)=O)C(=O)N[C@@H](CCC(N)=O)C(=O)N[C@@H](CC(=O)O)C(=O)N[C@@H](Cc1ccccc1)C(=O)N[C@H](C(=O)N[C@@H](CC(N)=O)C(=O)N[C@@H](Cc1c[nH]c2ccccc12)C(=O)N[C@@H](CC(C)C)C(=O)N[C@@H](CC(C)C)C(=O)N[C@@H](C)C(=O)N[C@@H](CCC(N)=O)C(=O)N[C@@H](CCCCN)C(N)=O)C(C)C)[C@@H](C)CC [AT154, [hGIP(3-30)NH2—C12/16]] here?
**A.** The IC50 was 27 nM.

**Q.** What about the “cAMP agonism Emax” value [2] of the same compound?
**A.** The value was 0%.
